target: T1, GST-Xa-hAAK1 (Homo sapiens, UniProt Q2M2I8); assay: AAK1 kinase assay; assay type: biochemical; conditions: ATP 22 μM; 3 hours at room temperature
T1 construct: made in house
Description: The assays were performed in U-bottom 384-well plates. […] The reactions were initiated by the combination of bacterially expressed, GST-Xa-hAAK1 with substrates and test compounds. The reactions were incubated at room temperature for 3 hours and terminated by adding 60 μl of 35 mM EDTA buffer to each sample. The reactions were analyzed on the Caliper LabChip 3000 (Caliper, Hopkinton, Mass.) by electrophoretic separation of the fluorescent substrate and phosphorylated product. […] Compounds were dissolved at 10 mM in dimethylsulfoxide (DMSO) and evaluated at eleven concentrations. IC50 values were derived by non-linear regression analysis.

T1 sequence (Q2M2I8 whole entry): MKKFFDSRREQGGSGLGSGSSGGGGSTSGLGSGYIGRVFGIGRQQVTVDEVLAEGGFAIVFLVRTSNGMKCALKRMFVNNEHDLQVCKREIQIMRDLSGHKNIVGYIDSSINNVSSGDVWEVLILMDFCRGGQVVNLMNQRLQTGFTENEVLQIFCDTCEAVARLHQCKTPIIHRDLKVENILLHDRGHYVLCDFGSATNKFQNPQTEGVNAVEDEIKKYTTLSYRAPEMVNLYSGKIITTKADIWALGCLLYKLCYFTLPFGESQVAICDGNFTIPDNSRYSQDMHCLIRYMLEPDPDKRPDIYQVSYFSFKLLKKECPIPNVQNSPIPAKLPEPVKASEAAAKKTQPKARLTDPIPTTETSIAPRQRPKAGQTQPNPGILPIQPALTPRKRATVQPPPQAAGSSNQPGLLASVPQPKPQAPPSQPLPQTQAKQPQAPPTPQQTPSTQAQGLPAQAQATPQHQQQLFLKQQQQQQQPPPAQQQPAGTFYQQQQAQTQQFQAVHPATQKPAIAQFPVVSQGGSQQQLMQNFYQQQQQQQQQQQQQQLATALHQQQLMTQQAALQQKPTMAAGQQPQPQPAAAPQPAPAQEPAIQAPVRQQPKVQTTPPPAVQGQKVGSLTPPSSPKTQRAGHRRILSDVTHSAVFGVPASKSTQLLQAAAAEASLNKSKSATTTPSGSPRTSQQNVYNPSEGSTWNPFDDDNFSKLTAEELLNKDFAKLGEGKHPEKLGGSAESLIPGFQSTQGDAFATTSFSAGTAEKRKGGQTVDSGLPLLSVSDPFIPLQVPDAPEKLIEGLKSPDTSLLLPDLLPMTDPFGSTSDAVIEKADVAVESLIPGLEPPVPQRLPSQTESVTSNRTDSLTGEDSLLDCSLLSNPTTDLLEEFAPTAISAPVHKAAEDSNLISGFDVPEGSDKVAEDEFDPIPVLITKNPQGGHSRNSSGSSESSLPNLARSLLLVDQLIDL

| IC50 | SMILES |
| --- | --- |
| 1330 nM | Cc1nccc2c1c(=O)n(C)c1cc(OCC(O)CNC(C)C)ccc21 (stereo not drawn) [Example 147, 8-(2-hydroxy-3-(isopropylamino)propoxy)-4,6-dimethylbenzo[c][2,7]naphthyridin-5(6H)-one] |

same assay, conditions: ATP 22 μM; given as IC50 range

| SMILES | IC50 |
| --- | --- |
| Cc1nccc2c1c(=O)n(CCO)c1cc(OC[C@@H](N)CC(C)C)c(Cl)cc21 [Example 132, (S)-8-((2-amino-4-methylpentyl)oxy)-9-chloro-6-(2-hydroxyethyl)-4-methylbenzo[c][2,7]naphthyridin-5(6H)-one] | < 1 nM |
| Cc1nccc2c1c(=O)n(C)c1cc(OC[C@@H](N)CC(C)C)c(C3CC3)cc21 [Example 125, (S)-8-((2-amino-4-methylpentyl)oxy)-9-cyclopropyl-4,6-dimethylbenzo[c][2,7]naphthyridin-5(6H)-one] | 1 to 10 nM |
| Cc1nccc2c1c(=O)n(C)c1cc(OCC(N)CCC(F)(F)F)c(Cl)cc21 (stereo not drawn) [Example 124, 8-((2-amino-5,5,5-trifluoropentyl)oxy)-9-chloro-4,6-dimethylbenzo[c][2,7]naphthyridin-5(6H)-one] | < 1 nM |
| Cc1nccc2c1c(=O)n(C)c1cc(OCC(O)CNC(C)C)c(Br)cc21 (stereo not drawn) [Example 149, 9-bromo-8-(2-hydroxy-3-(isopropylamino)propoxy)-4,6-dimethylbenzo[c][2,7]naphthyridin-5(6H)-one] | 10 to 100 nM |
| Cn1c(=O)c2cnccc2c2ccc(OCC(N)CCC(F)(F)F)cc21 (stereo not drawn) [Example 112, 8-((2-amino-5,5,5-trifluoropentyl)oxy)-6-methylbenzo[c][2,7]naphthyridin-5(6H)-one] | 1 to 10 nM |
| Cc1nccc2c1c(=O)n(C)c1cc(OC[C@@H](N)CC(C)C)c(C(N)=O)cc21 [Example 94, (S)-8-((2-amino-4-methylpentyl)oxy)-4,6-dimethyl-5-oxo-5,6-dihydrobenzo[c][2,7]naphthyridine-9-carboxamide] | 10 to 100 nM |
| Cc1nccc2c1c(=O)n(C)c1cc(OCC(N)CC(F)(F)F)c(Br)cc21 (stereo not drawn) [Example 137, 8-(2-amino-4,4,4-trifluorobutoxy)-9-bromo-4,6-dimethylbenzo[c][2,7]naphthyridin-5(6H)-one] | 1 to 10 nM |
| CC(C)NCC(O)COc1ccc2c3ccncc3c(=O)n(C)c2c1 (stereo not drawn) [Example 146, 8-(2-hydroxy-3-(isopropylamino)propoxy)-6-methylbenzo[c][2,7]naphthyridin-5(6H)-one] | 100 to 2000 nM |
| CC(C)C[C@@H](COc1ccc2c3ccncc3c(=O)n(C)c2c1)N(C)C [Example 39, (S)-8-((2-(dimethylamino)-4-methylpentyl)oxy)-6-methylbenzo[c][2,7]naphthyridin-5(6H)-one] | 10 to 100 nM |
| COc1nccc2c1c(=O)n(C)c1cc(OC[C@@H](N)CC(C)C)ccc21 [Example 42, (S)-8-(2-amino-4-methylpentyloxy)-4-methoxy-6-methylbenzo[c][2,7]naphthyridin-5(6H)-one] | 100 to 2000 nM |
| CC(C)CC(C)COc1ccc2c3ccncc3c(=O)n(C)c2c1 (stereo not drawn) [Example 150, 8-((2,4-dimethylpentyl)oxy)-6-methylbenzo[c][2,7]naphthyridin-5(6H)-one] | 10 to 100 nM |
| Cc1nccc2c1c(=O)n(C)c1cc(OC[C@@H](N)CC(C)C)c(C(C)C)cc21 [Example 130, (S)-8-((2-amino-4-methylpentyl)oxy)-9-isopropyl-4,6-dimethylbenzo[c][2,7]naphthyridin-5(6H)-one] | 10 to 100 nM |
| CC(C)C[C@H](N)COc1cc2c(cc1Cl)c1ccncc1c(=O)n2C [Example 43, (S)-8-((2-amino-4-methylpentyl)oxy)-9-chloro-6-methylbenzo[c][2,7]naphthyridin-5(6H)-one] | 1 to 10 nM |
| CC(C)C[C@H](N)COc1ccc2c3c(F)cncc3c(=O)n(C)c2c1 [Example 85, (S)-8-((2-amino-4-methylpentyl)oxy)-1-fluoro-6-methylbenzo[c][2,7]naphthyridin-5(6H)-one] | 10 to 100 nM |
| Cn1c(=O)c2cnccc2c2ccc(OCC(N)CCC(F)(F)F)cc21 (stereo not drawn) [Example 111, 8-((2-amino-5,5,5-trifluoropentyl)oxy)-6-methylbenzo[c][2,7]naphthyridin-5(6H)-one] | 1 to 10 nM |
| Cn1c(=O)c2cnccc2c2ccc(OCC(N)CC(F)(F)F)cc21 (single isomer, unassigned) [Example 136, 8-(2-amino-4,4,4-trifluorobutoxy)-6-methylbenzo[c][2,7]naphthyridin-5(6H)-one] | 1 to 10 nM |
| CC(C)C[C@H](N)COc1cc2c(cc1C#N)c1ccncc1c(=O)n2C [Example 5, (S)-8-((2-amino-4-methylpentyl)oxy)-6-methyl-5-oxo-5,6 dihydrobenzo[c][2,7]naphthyridine-9-carbonitrile] | 1 to 10 nM |
| COCCn1c(=O)c2c(C)nccc2c2cc(Cl)c(OC[C@@H](N)CC(C)C)cc21 [Example 79, (S)-8-((2-amino-4-methylpentyl)oxy)-9-chloro-6-(2-methoxyethyl)-4-methylbenzo[c][2,7]naphthyridin-5(6H)-one] | 1 to 10 nM |
| CC(C)CC(C)COc1cc2c(cc1Br)c1ccncc1c(=O)n2C (stereo not drawn) [Example 154, 9-bromo-8-((2,4-dimethylpentyl)oxy)-6-methylbenzo[c][2,7]naphthyridin-5(6H)-one] | 10 to 100 nM |
| Cc1nccc2c1c(=O)n(C)c1cc(OCC(N)CCC(F)(F)F)c(Br)cc21 (stereo not drawn) [Example 128, 8-((2-amino-5,5,5-trifluoropentyl)oxy)-9-bromo-4,6-dimethylbenzo[c][2,7]naphthyridin-5(6H)-one] | < 1 nM |
| COCc1cc2c3ccnc(C)c3c(=O)n(C)c2cc1OC[C@@H](N)CC(C)C [Example 104, (S)-8-(2-amino-4-methylpentyloxy)-9-(methoxymethyl)-4,6-dimethylbenzo[c][2,7]naphthyridin-5(6H)-one] | 10 to 100 nM |
| CC(C)C[C@H](N)COc1c(Cl)cc2c3ccncc3c(=O)n(C)c2c1Cl [Example 10, (S)-8-((2-amino-4-methylpentyl)oxy)-7,9-dichloro-6-methylbenzo[c][2,7]naphthyridin-5(6H) one] | 10 to 100 nM |
| CC(C)CC(C)COc1ccc2c3ccncc3c(=O)n(C)c2c1 (stereo not drawn) [Example 157, 8-((2,4-dimethylpentyl)oxy)-6-methylbenzo[c][2,7]naphthyridin-5(6H)-one] | 10 to 100 nM |
| Cc1nccc2c1c(=O)n(C)c1cc(OCC(N)CCC(F)(F)F)ccc21 (stereo not drawn) [Example 123, 8-((2-amino-5,5,5-trifluoropentyl)oxy)-4,6-dimethylbenzo[c][2,7]naphthyridin-5(6H)-one] | 10 to 100 nM |

The next lines start with the values.

| IC50 | SMILES |
| --- | --- |
| 10 to 100 nM | CC(C)CC(C)COc1ccc2c3ccncc3c(=O)n(C)c2c1 (stereo not drawn) [Example 158, 8-((2,4-dimethylpentyl)oxy)-6-methylbenzo[c][2,7]naphthyridin-5(6H)-one] |
| 1 to 10 nM | COC(=O)c1cc2c3ccnc(C)c3c(=O)n(C)c2cc1OC[C@@H](N)CC(C)C [Example 84, (S)-methyl 8-((2-amino-4-methylpentyl)oxy)-4,6-dimethyl-5-oxo-5,6-dihydrobenzo[c][2,7]naphthyridine-9-carboxylate] |
| 100 to 2000 nM | Cc1nccc2c1c(=O)n(C)c1c(F)c(OC[C@@H](N)CC(C)C)ccc21 [Example 81, (S)-8-(2-amino-4-methylpentyloxy)-7-fluoro-4,6-dimethylbenzo[c][2,7]naphthyridin-5(6H)-one] |
| 1 to 10 nM | Cc1nccc2c1c(=O)n(C)c1c(F)c(OC[C@@H](N)CC(C)C)c(Cl)cc21 [Example 107, (S)-8-((2-amino-4-methylpentyl)oxy)-9-chloro-7-fluoro-4,6-dimethylbenzo[c][2,7]naphthyridin-5(6H)-one] |
| 100 to 2000 nM | Cc1nccc2c1c(=O)n(C)c1cc(OCC(O)COC(C)C)ccc21 (stereo not drawn) [Example 153, 8-(2-hydroxy-3-isopropoxypropoxy)-4,6-dimethylbenzo[c][2,7]naphthyridin-5(6H)-one] |
| 1 to 10 nM | Cc1nccc2c1c(=O)[nH]c1cc(OC[C@@H](N)CC(C)C)ccc12 [Example 77, (S)-8-(2-amino-4-methylpentyloxy)-4-methylbenzo[c][2,7]naphthyridin-5(6H)-one] |
| 100 to 2000 nM | Cc1nccc2c1c(=O)n(C)c1cc(OCC(C)CC(C)C)ccc21 (stereo not drawn) [Example 155, 8-((2,4-dimethylpentyl)oxy)-4,6-dimethylbenzo[c][2,7]naphthyridin-5(6H)-one] |
| 100 to 2000 nM | CC(C)C[C@H](N)COc1cc2c(cc1-c1ccc(F)cc1)c1ccncc1c(=O)n2C [Example 51, (S)-8-((2-amino-4-methylpentyl)oxy)-9-(4-fluorophenyl)-6 methylbenzo[c][2,7]naphthyridin-5(6H)-one] |
| 1 to 10 nM | Cc1nccc2c1c(=O)n(C)c1cc(OCC(N)CC(C)C(F)(F)F)ccc21 (single isomer, unassigned) [Example 87] |
| 10 to 100 nM | Cc1nccc2c1c(=O)n(C)c1cc(OC[C@@H](O)CC(C)C)ccc21 [Example 152, (S)-8-((2-hydroxy-4-methylpentyl)oxy)-4,6-dimethylbenzo[c][2,7]naphthyridin-5(6H)-one] |
| 1 to 10 nM | Cc1nccc2c1c(=O)n(C)c1cc(OCC(N)CC(C)C(F)(F)F)ccc21 (single isomer, unassigned) [Example 88] |
| < 1 nM | CN[C@H](COc1cc2c(cc1C#N)c1ccnc(C)c1c(=O)n2C)CC(C)C [Example 65, (S)-4,6-dimethyl-8-(4-methyl-2-(methylamino)pentyloxy)-5-oxo-5,6-dihydrobenzo[c][2,7]naphthyridine-9-carbonitrile] |
| 10 to 100 nM | CC(C)CCCOc1ccc2c3ccncc3c(=O)n(C)c2c1 [Example 151, 6-methyl-8-((4-methylpentyl)oxy)benzo[c][2,7]naphthyridin-5(6H)-one] |
| 1 to 10 nM | Cc1nccc2c1c(=O)[nH]c1cc(OC[C@@H](N)CC(C)C)c(Br)cc12 [Example 49, (S)-8-(2-amino-4-methylpentyloxy)-9-bromo-4-methylbenzo[c][2,7]naphthyridin-5(6H)-one] |

— patent US20160333006A1, “ARYL LACTA KINASE INHIBITORS” (Bristol-Myers Squibb Company, priority 2014, published 2016)
